Like-named read-outs stand apart in the source and are kept apart here.
How the values were obtained:
[1] = Free energy of hydration predicted with the QM-parameterized force field model (ARROW FF), classical MD and PIMD simulation in a water box; conditions: for water Arrow MD Error / water Arrow PIMD8 Error: Table 3; for water Arrow MD Error: absolute error of MD hydration free energy vs experiment; for water Arrow PIMD8 Error: absolute error of PIMD8 hydration free energy vs experiment; for Arrow PIMD8 Error: absolute error vs Exp (hydration)
Procedure, shortened: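 Solute decoupled from solvent in a 32×32×32 Å3 water box (PME, 9 Å cutoffs), electrostatics, exchange-repulsion and dispersion switched off together over 15 lambda points with soft-coring. Steepest-descent minimization, 50 ps equilibration, 1 ns NPT production at 1 atm; classical and path-integral MD. Free energy from BAR and TI.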

[2] = CHEX/H2O partition coefficient (log D) predicted with the QM-parameterized force field model (ARROW FF)
Procedure, shortened: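 Cyclohexane/water partition coefficients were predicted by molecular simulation with a QM-parameterized force field, with bonded force constants and equilibrium values fitted to MP2/aug-cc-pVTZ energies. Solutes carried neutral functional groups, and results from four independent groups were averaged.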

[3] = Free energy of hydration by COSMO implicit solvent model (MolPro ver. 2012); conditions: absolute error vs Exp (hydration)
Procedure, shortened: (§1)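 COSMO solvation free energies were calculated for the molecule set with MolPro because no original-COSMO free energy data were available. SMD and PCM hydration free energies were obtained as received. SMD, PCM and COSMO-RS values cover only molecules that overlap with those computed using the QM-parameterized force field model.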

[4] = Free energy of hydration by Solvation Model Dielectric (SMD) implicit solvent model; conditions: absolute error vs Exp (hydration)
Procedure, shortened: as §1

[5] = Free energy of hydration by Polarizable Continuum Model (PCM); conditions: absolute error vs Exp (hydration)
Procedure, shortened: as §1

[6] = Free energy of hydration by Free Energy Machine Learning Model (FML); conditions: absolute error vs Exp (hydration)
From the text: Machine learning models can be used for free energy determination.

[7] = Table 3; free energy of hydration, experimental; cited from earlier work
[8] = Table 3; free energy of solvation in cyclohexane, experimental; cited from earlier work
[9] = implicit solvent model, values received; cited from earlier work
[10] = implicit solvent model, values received; cited from earlier work; remark: listed apart in the source
[11] = Table 3; CHEX/H2O partition coefficient, experimental; cited from earlier work
[12] = Free energy of hydration by COSMO-RS
Procedure, shortened: as §1

[13] = Table 3, absolute error of MD log D vs experiment
[14] = Table 3, absolute error of PIMD log D vs experiment

Row | SMILES | water Arrow MD Error [1] [kcal/mol] | water Arrow PIMD8 Error [1] [kcal/mol] | Arrow PIMD8 Error [1] [kcal/mol] | hydration error ([1]; predicted vs experimental free energy of hydration) [kcal/mol] | log D Arrow MD Error [2, 13] | log D Arrow PIMD Error [2, 14] | COSMO/Molpro Error [3] [kcal/mol] | SMD Error [4] [kcal/mol] | PCM Error [5] [kcal/mol] | FML error [6] [kcal/mol] | water Exp (hydration) [7] [kcal/mol] | CHEX Exp (solvation) [8] [kcal/mol] | SMD free energy of hydration [9] [kcal/mol] | PCM free energy of hydration [10] [kcal/mol] | Exp (log D) [11] | log D Arrow MD Error [2] | log D Arrow PIMD Error [2] | COSMO-RS error [12] [kcal/mol]
1 | Cc1ccccc1O [o-cresol] | 1.27 | 0.28 | 0.28 | -1 | 0.67 | 0.14 | 1.21 | 1.27 | 2.17 | 0.19 | -5.87 | -6.02 | -4.60 | -3.70 | 0.11 |  |  | 
2 | CCC(=O)OC [MethylPropionate] | 0.62 | 0.10 | 0.10 |  | 0.84 | 0.45 | 3.75 | 0.23 | 0.57 | 0.20 | -2.93 | -3.71 | -2.70 | -3.50 | 0.57 |  |  | 
3 | CCCCOC(C)=O [ButylAcetate] | 0.85 | 0.07 | 0.07 |  | 0.60 | 0.06 | 4.19 | 0.35 | 1.25 | 0.61 | -2.55 | -4.94 | -2.90 | -3.80 | 1.75 |  |  | 
4 | CCOC(C)=O [EthylAcetate] | 0.28 | 0.32 | 0.32 |  |  |  | 3.95 | 0.02 | 0.58 | 0.02 | -3.12 | -3.55 | -3.10 | -3.70 | 0.32 | 0.46 | 0.13 | 
5 | CCCOC(C)=O [PropylAcetate] | 0.64 | 0.07 | 0.07 |  |  |  | 4.12 | 0.14 | 0.94 | 0.24 | -2.86 | -4.36 | -3.00 | -3.80 | 1.10 | 0.65 | 0.37 | 
6 | CCCCCO [1-Pentanol] | 1.18 | 0.05 | 0.05 |  |  |  | 2.21 | 0.47 | 1.17 | 0.30 | -4.47 |  | -4.00 | -3.30 |  |  |  | 0.11
7 | Cc1cccc(O)c1 [m-cresol] | 2.12 | 1.03 | 1.03 |  | 0.65 | 0.09 | 3.97 | 0.69 | 1.49 | 0.72 | -5.49 | -5.20 | -4.80 | -4.00 | −0.21 |  |  | 

Reference: US20230129485A1, “SYSTEM AND METHOD FOR DETERMINING MATERIAL PROPERTIES OF MOLECULAR SYSTEMS FROM AN AB-INITIO PARAMETERIZED FORCE-FIELD” (InterX, Inc., priority 2021, published 2023)
